The test system of assay [1] is LNCaP-Vancouver prostate cells. Kind of assay: In vitro LNCaP Vancouver prostate cell proliferation assay in lipid reduced medium. Format: cell-based. Conditions: read-out: pIC50 LNCaP_Vancouver prostate cell (converted).
For assay [2], the system named is PC-3M-Luc-C6 prostate cells. The experiment in a line: In vitro PC-3M-Luc-C6 prostate cell proliferation assay in lipid reduced medium. Format: cell-based. Particulars: 96 h, read-out: pIC50 PC-3M-Luc-C6 prostate cell (converted).
Assay [3] deals with A2780 ovarian cells. The experiment in a line: A2780 ovarian cell proliferation assay in lipid reduced medium, without palmitate (MTT). Format: cell-based. Conditions: Homo sapiens, A2780, 96 h; read-out: pIC50 A2780 Ovarian Cell, Without Palmitate (converted).
The target in assay [4] is Fatty Acid Synthase Keto-reductase Domain (FASN KR) (Homo sapiens, UniProt P49327). The experiment in a line: Fatty Acid Synthase keto-reductase domain (FASN KR) inhibition, NADPH oxidation at 340 nm.
Chain of Fatty Acid Synthase Keto-reductase Domain (FASN KR) (P49327 whole entry, the tested form may be a part): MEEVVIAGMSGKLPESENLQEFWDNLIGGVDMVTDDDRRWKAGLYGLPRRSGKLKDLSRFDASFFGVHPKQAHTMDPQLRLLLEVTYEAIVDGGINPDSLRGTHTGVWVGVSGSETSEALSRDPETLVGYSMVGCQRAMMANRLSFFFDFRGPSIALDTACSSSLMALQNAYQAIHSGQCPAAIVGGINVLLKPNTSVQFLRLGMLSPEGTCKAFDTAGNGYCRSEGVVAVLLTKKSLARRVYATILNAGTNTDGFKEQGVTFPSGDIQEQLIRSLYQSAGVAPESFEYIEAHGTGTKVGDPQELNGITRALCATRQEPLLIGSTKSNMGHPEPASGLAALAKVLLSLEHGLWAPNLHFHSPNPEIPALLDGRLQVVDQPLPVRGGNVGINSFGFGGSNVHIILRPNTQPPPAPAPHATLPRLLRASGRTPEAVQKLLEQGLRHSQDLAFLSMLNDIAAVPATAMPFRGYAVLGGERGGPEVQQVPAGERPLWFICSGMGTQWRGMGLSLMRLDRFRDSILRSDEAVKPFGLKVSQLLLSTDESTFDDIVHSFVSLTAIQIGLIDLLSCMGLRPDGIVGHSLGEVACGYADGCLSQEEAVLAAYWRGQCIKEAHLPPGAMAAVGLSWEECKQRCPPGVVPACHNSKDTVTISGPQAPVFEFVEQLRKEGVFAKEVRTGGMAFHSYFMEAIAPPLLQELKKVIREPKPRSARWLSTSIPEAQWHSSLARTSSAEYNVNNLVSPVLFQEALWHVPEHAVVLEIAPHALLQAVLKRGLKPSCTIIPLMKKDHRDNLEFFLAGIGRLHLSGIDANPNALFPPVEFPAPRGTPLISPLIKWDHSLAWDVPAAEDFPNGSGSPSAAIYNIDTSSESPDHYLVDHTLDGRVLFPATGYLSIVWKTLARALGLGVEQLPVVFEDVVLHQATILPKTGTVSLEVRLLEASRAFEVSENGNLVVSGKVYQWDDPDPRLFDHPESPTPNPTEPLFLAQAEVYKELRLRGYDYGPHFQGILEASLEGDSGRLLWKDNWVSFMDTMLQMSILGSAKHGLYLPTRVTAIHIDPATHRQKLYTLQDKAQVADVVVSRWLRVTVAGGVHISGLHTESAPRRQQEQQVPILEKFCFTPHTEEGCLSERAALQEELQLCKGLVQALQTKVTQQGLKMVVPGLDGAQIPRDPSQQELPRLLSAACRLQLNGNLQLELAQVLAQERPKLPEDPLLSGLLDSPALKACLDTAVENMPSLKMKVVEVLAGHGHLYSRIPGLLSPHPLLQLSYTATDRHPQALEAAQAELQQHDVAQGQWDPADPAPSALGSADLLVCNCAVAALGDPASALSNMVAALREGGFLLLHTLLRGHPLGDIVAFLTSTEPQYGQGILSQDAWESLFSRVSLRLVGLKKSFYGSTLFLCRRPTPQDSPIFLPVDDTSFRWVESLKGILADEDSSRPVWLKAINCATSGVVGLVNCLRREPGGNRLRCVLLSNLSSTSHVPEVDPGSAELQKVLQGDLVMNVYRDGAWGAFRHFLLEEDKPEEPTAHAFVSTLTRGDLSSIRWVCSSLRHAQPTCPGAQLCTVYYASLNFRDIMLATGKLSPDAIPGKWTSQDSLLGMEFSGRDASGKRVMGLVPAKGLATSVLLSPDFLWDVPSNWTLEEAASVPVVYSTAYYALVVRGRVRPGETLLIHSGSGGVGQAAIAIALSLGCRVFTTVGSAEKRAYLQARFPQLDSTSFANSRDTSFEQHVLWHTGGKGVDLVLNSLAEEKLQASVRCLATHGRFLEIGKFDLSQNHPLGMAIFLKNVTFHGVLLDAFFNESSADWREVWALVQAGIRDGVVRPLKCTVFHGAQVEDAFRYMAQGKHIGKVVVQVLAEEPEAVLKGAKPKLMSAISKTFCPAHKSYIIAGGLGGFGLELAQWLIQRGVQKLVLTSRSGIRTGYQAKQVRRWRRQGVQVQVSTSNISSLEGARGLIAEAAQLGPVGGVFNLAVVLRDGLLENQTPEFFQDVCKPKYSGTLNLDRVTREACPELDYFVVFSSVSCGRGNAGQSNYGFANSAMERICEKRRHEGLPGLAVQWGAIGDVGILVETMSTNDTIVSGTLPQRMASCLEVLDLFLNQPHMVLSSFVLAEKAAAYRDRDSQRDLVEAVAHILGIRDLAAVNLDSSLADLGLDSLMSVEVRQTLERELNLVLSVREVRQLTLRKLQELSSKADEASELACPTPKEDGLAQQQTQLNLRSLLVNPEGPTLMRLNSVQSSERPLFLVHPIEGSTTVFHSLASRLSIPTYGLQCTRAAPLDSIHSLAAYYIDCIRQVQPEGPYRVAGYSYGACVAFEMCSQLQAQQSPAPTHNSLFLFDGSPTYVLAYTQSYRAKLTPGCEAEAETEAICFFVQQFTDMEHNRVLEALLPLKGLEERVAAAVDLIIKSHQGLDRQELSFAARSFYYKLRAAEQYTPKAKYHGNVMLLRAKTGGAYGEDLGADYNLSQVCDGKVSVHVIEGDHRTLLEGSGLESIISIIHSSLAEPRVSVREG
Description: After 20 minutes incubation at room temperature the plate was measured again (T2).
The decrease in absorbance was calculated as (Absorbance before incubation T1)−(Absorbance following incubation T2).
A plot of Controlmin versus test compound concentration was fitted to a 4-parameter logistic curve using a non-linear least squares regression method.
In assay [5] the target is T1, hFASN enzyme (full length) (Homo sapiens, UniProt P49327).
T1 construct: 10 μL hFASN enzyme (full length, 300 ng, purified in house); made in house
T1 sequence (P49327 whole entry): as the sequence (P49327 whole entry, the tested form may be a part) above
The experiment in a line: Fatty Acid Synthase (FASN) inhibition scintillation proximity assay. Format: biochemical. Particulars: for inhibition at 10 µM: read-out: Human FASN % inhibition @ 10 μM, 10 μM test compound; for IC50: read-out: Human FASN pIC50 (converted). The procedure, abridged:
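Proximity read-out: hydrophobic ^3H-palmitate formed from ^3H-acetyl-CoA and malonyl-CoA binds streptavidin imaging beads, imaged at 610±20 nm at least 24 h after stopping. Enzyme was in-house purified full-length hFASN, 300 ng, in pH 7.5 phosphate/DTT buffer; compound series 30 μM down to 0.01 μM, normalized to controls, 4-parameter fit.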
(In general: Scintillation proximity formats need no separation of bound from free tracer.)

The subject of assay [6] is A2780 ovarian cells. Kind of assay: A2780 ovarian cell proliferation assay in lipid reduced medium, with palmitate (MTT). Format: cell-based. Particulars: Homo sapiens, A2780, 96 h; read-out: pIC50 A2780 Ovarian Cell, With Palmitate (converted). An outline of the steps:
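In this palmitate-supplemented format, compound dilutions (30 μM down to 0.01 μM) are added to cells in lipid-reduced serum with 25 μM palmitate, 0.2% fatty-acid-free BSA and 0.25% ethanol. After four days (96 h) MTT absorbance at 544 nm is recorded and fitted by minimum sum of squares.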

pIC50: −log10 of the molar value.

A word on the pIC50: it is −log10 of the IC50, conventionally taken in molar units. Lower therefore signals a high IC50. In general, inhibition refers to the relative decrease from the control value, in per cent. As to `Cn1ccc(-c2ccc(-c3ccc(C4=NC5(CC5)C(=O)N4CC4CN(C(=O)C5CC5)C4)cc3)cc2)n1` [compound 542, 6-{[1-(Cyclopropylcarbonyl)azetidin-3-yl]methyl}-5-[4′-(1-methyl-1H-pyrazol-3-yl)biphenyl-4-yl]-4,6-diazaspiro[2.4]hept-4-en-7-one], the IC50 in assay [1] was 3020 nM; in assay [2] it was 4470 nM; in assay [3], 832 nM; in assay [5] it was 692 nM; in assay [6], more than 10000 nM. This compound showed a pIC50 in assay [4] of 5.79. In assay [5], the inhibition at 10 µM came to 89%.
Turning to `CC(C)Cn1cc(-c2ccc(-c3ccc(C4=NC5(CC5)C(=O)N4CC4CN(C(=O)C5CC5)C4)cc3)cc2)cn1` [compound 544, 6-{[1-(Cyclopropylcarbonyl)azetidin-3-yl]methyl}-5-{4′-[1-(2-methylpropyl)-1H-pyrazol-4-yl]biphenyl-4-yl}-4,6-diazaspiro[2.4]hept-4-en-7-one], the IC50 in assay [1] is 776 nM; in assay [2] it was 141 nM; in assay [3] it was 52.5 nM; in assay [5] it was 204 nM; in assay [6], 1620 nM. In addition, the pIC50 in assay [4] was 6.14. In addition, in assay [5], the inhibition at 10 µM stood at 98%.
In the case of `Cc1cc(-c2ccc3c(cnn3C)c2)ccc1C1=NC2(CC2)C(=O)N1CC1CN(C(=O)C2CCO2)C1` (stereo not drawn) [compound 545, 5-[2-Methyl-4-(1-methyl-1H-indazol-5-yl)phenyl]-6-{[1-(oxetan-2-ylcarbonyl)azetidin-3-yl]methyl}-4,6-diazaspiro[2.4]hept-4-en-7-one], the IC50 is 269 nM in assay [1]; 126 nM in assay [2]; 91.2 nM in assay [3]; 110 nM in assay [5]; more than 10000 nM in assay [6]. In assay [4], this compound had a pIC50 of 6.59. Besides, the inhibition at 10 µM in assay [5] turned out to be 101%.
On to `Cc1ccnc2cc(-c3ccc(C4=NC5(CC5)C(=O)N4CC4CN(C(=O)C5CC5)C4)cc3)ccc12` [compound 554, 6-{[1-(Cyclopropylcarbonyl)azetidin-3-yl]methyl}-5-[4-(4-methylquinolin-7-yl)phenyl]-4,6-diazaspiro[2.4]hept-4-en-7-one], for which the IC50 in assay [1] is 646 nM; in assay [2], approximately 174 nM; in assay [3], approximately 145 nM; in assay [5], 129 nM; in assay [6] it was 7760 nM. The compound also showed a pIC50 in assay [4] of 6.57. Moreover, the inhibition at 10 µM in assay [5] is 97%.
`Cc1nc2ccc(-c3ccc(C4=NC5(CC5)C(=O)N4CC4CN(C(=O)C5CC5)C4)c(F)c3)cc2s1` [compound 558, 6-{[1-(Cyclopropylcarbonyl)azetidin-3-yl]methyl}-5-[2-fluoro-4-(2-methyl-1,3-benzothiazol-6-yl)phenyl]-4,6-diazaspiro[2.4]hept-4-en-7-one]: the IC50 in assay [1] is 2510 nM; in assay [2] it was 724 nM; in assay [3], approximately 562 nM; in assay [5] it was 186 nM; in assay [6], 6310 nM. The compound also gave a pIC50 in assay [4] of 6.15. In addition, in assay [5], the inhibition at 10 µM came to 96%.
Regarding `Cc1nc2cc(-c3ccc(C4=NC5(CC5)C(=O)N4CC4CN(C(=O)C5CC5)C4)cc3)ccc2s1` [compound 562, 6-{[1-(Cyclopropylcarbonyl)azetidin-3-yl]methyl}-5-[4-(2-methyl-1,3-benzothiazol-5-yl)phenyl]-4,6-diazaspiro[2.4]hept-4-en-7-one], the IC50 is 3090 nM in assay [1]; 1620 nM in assay [2]; 955 nM in assay [3]; 245 nM in assay [5]; more than 10000 nM in assay [6]. Also, the pIC50 in assay [4] was 5.86. Further, the inhibition at 10 µM in assay [5] amounted to 97%.
As to `Cn1nccc1-c1ccc(-c2ccc(C3=NC4(CC4)C(=O)N3CC3CN(C(=O)C4(C)CC4)C3)c(F)c2)cc1` [compound 566, 5-[3-Fluoro-4′-(1-methyl-1H-pyrazol-5-yl)biphenyl-4-yl]-6-({1-[(1-methylcyclopropyl)carbonyl]azetidin-3-yl}methyl)-4,6-diazaspiro[2.4]hept-4-en-7-one], the IC50 in assay [1] was 1550 nM; in assay [2], 575 nM; in assay [3] it was 295 nM; in assay [5], 380 nM; in assay [6], more than 10000 nM. The same compound gave a pIC50 in assay [4] of 6.11. Moreover, in assay [5], the inhibition at 10 µM was 93%.
On to `Cc1ccc2ccc(-c3ccc(C4=NC5(CC5)C(=O)N4CC4CN(C(=O)C5(C)CC5)C4)c(C)c3)cc2n1` [compound 576, 6-({1-[(1-Methylcyclopropyl)carbonyl]azetidin-3-yl}methyl)-5-[2-methyl-4-(2-methylquinolin-7-yl)phenyl]-4,6-diazaspiro[2.4]hept-4-en-7-one], for which the IC50 in assay [1] is 2140 nM; in assay [2], 676 nM; in assay [3], 288 nM; in assay [5], 380 nM; in assay [6], more than 10000 nM. This compound also gave a pIC50 in assay [4] of 6.17. In assay [5], the inhibition at 10 µM came to 99%.
With `Cc1cc(-c2cccc(NS(=O)(=O)C3CC3)c2)ccc1C1=NC2(CC2)C(=O)N1CC1CN(C(=O)C2CC2)C1` [compound 578, N-[4′-(6-{[1-(Cyclopropylcarbonyl)azetidin-3-yl]methyl}-7-oxo-4,6-diazaspiro[2.4]hept-4-en-5-yl)-3′-methylbiphenyl-3-yl]cyclopropanesulfonamide], the IC50 in assay [1] is 5010 nM; in assay [2] it was 871 nM; in assay [3] it was 331 nM; in assay [5], 646 nM; in assay [6] it was more than 10000 nM. The pIC50 in assay [4] was 5.81. Besides, in assay [5], the inhibition at 10 µM amounted to 92%.
Consider `Cc1cc(-c2ccc3ccc(C(N)=O)nc3c2)ccc1C1=NC2(CC2)C(=O)N1CC1CN(C(=O)C2(C)CC2)C1` [compound 579, 7-{3-Methyl-4-[6-({1-[(1-methylcyclopropyl)carbonyl]azetidin-3-yl}methyl)-7-oxo-4,6-diazaspiro[2.4]hept-4-en-5-yl]phenyl}quinoline-2-carboxamide], for which the IC50 was 4570 nM in assay [1]; 2000 nM in assay [2]; 1100 nM in assay [3]; 1100 nM in assay [5]; more than 10000 nM in assay [6]. Besides, the pIC50 in assay [4] is 5.34. Further, in assay [5], the inhibition at 10 µM turned out to be 83%.
For the compound `Cc1cc(-c2ccc3c(c2)cc(C)n3C)ccc1C1=NC2(CC2)C(=O)N1CC1CN(C(=O)C2CC2)C1` [compound 582, 6-{[1-(Cyclopropylcarbonyl)azetidin-3-yl]methyl}-5-[4-(1,2-dimethyl-1H-indol-5-yl)-2-methylphenyl]-4,6-diazaspiro[2.4]hept-4-en-7-one], the IC50 in assay [1] was 3240 nM; in assay [2] it was 794 nM; in assay [3], approximately 631 nM; in assay [5], 324 nM; in assay [6], more than 10000 nM. Moreover, in assay [4], the pIC50 is 5.92. Moreover, in assay [5], the inhibition at 10 µM worked out at 103%.
In the case of `Cn1ncc2cc(-c3ccc(C4=NC5(CC5)C(=O)N4CC4CN(C(=O)C5CC5)C4)c(Cl)c3)ccc21` [compound 584, 5-[2-Chloro-4-(1-methyl-1H-indazol-5-yl)phenyl]-6-{[1-(cyclopropylcarbonyl)azetidin-3-yl]methyl}-4,6-diazaspiro[2.4]hept-4-en-7-one], the IC50 is 646 nM in assay [1]; 83.2 nM in assay [2]; 63.1 nM in assay [3]; 135 nM in assay [5]; 6610 nM in assay [6]. Moreover, the negative-log IC50 (pIC50) in assay [4] is 6.77. Further, the inhibition at 10 µM in assay [5] worked out at 91%.

The record behind these values is patent US10077261B2, “Imidazolin-5-one derivative useful as FASN inhibitors for the treatment of cancer” (Janssen Pharmaceutica NV, priority 2012, dated 2018).
